Reference: patent US20250280826A1, “PLANT GROWTH PROMOTER” (KAO CORPORATION, priority 2022, published 2025)

Tested on: azuki bean
Assay: Example 6: initial growth index in azuki bean (above-/below-ground part dry weight)
Format: in vivo
Details: ascorbic acid 1 500 mass ppm, tap water vs deionized water
Experimental: Medium-term fertilizer effect type culture soil (Takii hydrous cell medium-term fertilizer effect type, Takii & Co., Ltd.) and vermiculite grains (Akagi-Engei Co., Ltd.) were mixed at a volume ratio of 1:1, and the soil was placed in a polypot (diameter: 10.5 cm, height: 9 cm). The azuki bean seeds used were “Tamba Dainagon Azuki Beans” (purchased from Takii & Co., Ltd.). After tap water was supplied in an amount of 250 mL per pot, 2 seeds per pot were each sown at a depth of from about 1 to 2 cm from the soil surface. The number of repeats in each test plot was 6 (n=6). […]
Spraying solutions were prepared, and 6.7 mL of each per plant was sprayed only once using a mister on day 21 after sowing. […] The evaluated test plots 1 to 4 are as follows.
On day 28 after sowing, the plant body was dried at 90° C. for 24 hours, and the above-ground part dry weight and below-ground part dry weight of the plant body were then measured. • 1 plot: control (no application) • 2 plot: foliar spray of 1 500 mass ppm ascorbic acid (dissolved in tap water) • 3 plot: foliar spray of 1 500 mass ppm ascorbic acid (dissolved in deionized water) • 4 plot: foliar spray of 1 500 mass ppm ascorbic acid+1 mass ppm BHT+50 mass ppm isobutyl alcohol+350 mass ppm sorbitan monolaurate (dissolved in tap water)

## O=C1O[C@H]([C@@H](O)CO)C(O)=C1O [ascorbic acid, (R)-3,4-dihydroxy-5-((S)-1,2-dihydroxyethyl)furan-2(5H)-one]
  effects on the initial growth index: varied in accordance with the water quality
